Reference: ChEMBL document CHEMBL1201862, “PubChem BioAssay data set” (2004)
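These data come from cells grown in 96-well plates and exposed to compound for 48 hours at five concentrations. Abbreviation: GI50, concentration required for 50% inhibition of growth.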 Active and inactive are the calls of the source. Rule as the data show it: active = GI50 up to about 1.1 µM and inactive = higher.

Key:
Experiment in all cases: NCI tumour cell line growth inhibition, 48 h
SK-MEL-5 = test system: SK-MEL-5
SK-MEL-28 = test system: SK-MEL-28
MOLT-4 = test system: MOLT-4
PC-3 = test system: PC-3
OVCAR-3 = test system: OVCAR-3
SN12C = test system: SN12C
MDA-MB-231 = test system: MDA-MB-231
RPMI-8226 = test system: RPMI-8226
HCT-116 = test system: HCT-116
UO-31 = test system: UO-31
HT-29 = test system: HT-29
U-251 = test system: U-251
MDA-MB-435 = test system: MDA-MB-435
SW-620 = test system: SW-620
UACC-257 = test system: UACC-257
EKVX = test system: EKVX
NCI-H23 = test system: NCI-H23
RXF 393 = test system: RXF 393
SK-OV-3 = test system: SK-OV-3

Measured: GI50

c1ccc2sc(SCSc3nc4ccccc4s3)nc2c1
inactive: SK-MEL-5 30.1 µM | SK-MEL-28 > 100 µM | MOLT-4 8.81 µM | PC-3 42.1 µM | OVCAR-3 92.7 µM | SN12C > 100 µM | MDA-MB-231 > 100 µM | RPMI-8226 51.5 µM | HCT-116 34.1 µM | UO-31 86.1 µM | HT-29 72.1 µM | U-251 39.3 µM | MDA-MB-435 > 100 µM | SW-620 96.8 µM | UACC-257 28.5 µM | EKVX 50.1 µM | NCI-H23 70.3 µM | RXF 393 > 100 µM

CCOC(=O)C1(C#N)C2(C#N)C(N)=NC(ON=C(C)C)(ON=C(C)C)C12C#N (stereo unspecified)
inactive: SK-MEL-5 > 100 µM | SK-OV-3 > 100 µM | SK-MEL-28 > 100 µM | MOLT-4 > 100 µM | PC-3 > 100 µM | SN12C > 100 µM | MDA-MB-231 62.4 µM | RPMI-8226 > 100 µM | HCT-116 > 100 µM | UO-31 > 100 µM | HT-29 > 100 µM | U-251 > 100 µM | MDA-MB-435 > 100 µM | SW-620 > 100 µM | UACC-257 > 100 µM | EKVX > 100 µM | NCI-H23 > 100 µM | RXF 393 > 100 µM

O=C1NC(=O)c2ccc([N+](=O)[O-])c3cccc1c23
inactive: SK-MEL-5 18.9 µM | SK-OV-3 23.1 µM | SK-MEL-28 20.2 µM | PC-3 17.4 µM | SN12C 17.4 µM | MDA-MB-231 17.1 µM | RPMI-8226 14.5 µM | HCT-116 11.7 µM | UO-31 16.3 µM | HT-29 16 µM | U-251 15.4 µM | MDA-MB-435 16.4 µM | SW-620 13 µM | UACC-257 16.9 µM | EKVX 28.3 µM | NCI-H23 17.1 µM | RXF 393 15.5 µM

CCOc1ccc2ccc3cccnc3c2n1
inactive: SK-MEL-5 32.7 µM | SK-OV-3 43.4 µM | SK-MEL-28 > 100 µM | PC-3 34.2 µM | OVCAR-3 21.9 µM | SN12C > 100 µM | MDA-MB-231 38.4 µM | RPMI-8226 23.2 µM | HCT-116 34 µM | UO-31 64 µM | HT-29 34.1 µM | U-251 48.4 µM | MDA-MB-435 49.3 µM | SW-620 62.7 µM | UACC-257 26.9 µM | EKVX 36.5 µM | NCI-H23 61.7 µM | RXF 393 68.9 µM

CCc1n[nH]c(=O)n1CCCCCCCCn1c(CC)n[nH]c1=O
inactive: SK-MEL-5 > 100 µM | SK-OV-3 > 100 µM | MOLT-4 > 100 µM | PC-3 > 100 µM | OVCAR-3 > 100 µM | SN12C > 100 µM | MDA-MB-231 > 100 µM | RPMI-8226 > 100 µM | HCT-116 > 100 µM | UO-31 > 100 µM | HT-29 > 100 µM | U-251 > 100 µM | MDA-MB-435 > 100 µM | SW-620 > 100 µM | UACC-257 > 100 µM | EKVX > 100 µM | NCI-H23 > 100 µM | RXF 393 > 100 µM

COc1cc2c(cc1OC)C1=CCC(c3ccccc3)[N+]1(C)CC2 (stereo unspecified)
inactive: SK-MEL-5 78.5 µM | SK-OV-3 > 100 µM | SK-MEL-28 > 100 µM | MOLT-4 > 100 µM | PC-3 > 100 µM | OVCAR-3 > 100 µM | MDA-MB-231 > 100 µM | RPMI-8226 > 100 µM | HCT-116 > 100 µM | UO-31 > 100 µM | HT-29 > 100 µM | U-251 > 100 µM | MDA-MB-435 > 100 µM | SW-620 > 100 µM | UACC-257 33.5 µM | EKVX > 100 µM | NCI-H23 > 100 µM | RXF 393 > 100 µM

O=[N+]([O-])c1c2nc3n(c2cc2c1nc1n2CCC1)CCC3
inactive: SK-MEL-5 > 100 µM | SK-OV-3 > 100 µM | SK-MEL-28 > 100 µM | MOLT-4 > 100 µM | PC-3 > 100 µM | OVCAR-3 > 100 µM | SN12C > 100 µM | MDA-MB-231 > 100 µM | RPMI-8226 > 100 µM | HCT-116 > 100 µM | UO-31 > 100 µM | HT-29 > 100 µM | U-251 > 100 µM | MDA-MB-435 > 100 µM | SW-620 > 100 µM | UACC-257 > 100 µM | EKVX > 100 µM | NCI-H23 > 100 µM | RXF 393 > 100 µM
